Reference: US20110251128A1, “THYMOSIN Beta4 PEPTIDES PROMOTE TISSUE REGENERATION” (The Board of Regents of the University of Texas System, priority 2010, published 2011)
Entries after “also recorded” stand apart in the source; their conditions may differ. Like-named read-outs stand apart in the source and are kept apart here.

What was measured:
full thickness wound = details: cited from earlier work; for increase of epithelial layer restoration in the wound: topical or injected, compared to untreated
myocardial cells = assay: Beating frequency of myocardial cells in embryonic cardiac explants on collagen gel; assay type: cell-based, mouse; details: 300 ng peptide or 100 ng TB4; normalized to PBS and TB4 controls (TB4 = 100.00)
Procedure: In vitro embryonic cardiac cell migration assay. The outflow tract of the heart was dissected from E11.5 wild-type mouse embryos and placed on rat-tail collagen matrix (Roche) endothelial layer facing down as described (Bock-Marquette et al., 2004; Runyan and Markwald, 1983). After 10 h of attachment, three independent explants were incubated with 300 ng of peptide #1-17, 100 ng of TB4, or 3 μl PBS in […] OPTIMEM medium (Invitrogen/Gibco) respectively. Medium and protein were changed every two days. To monitor migration distance photos were taken daily using Nikon DXM1200F microscope at 4× magnification. Cell migration distance was quantified by ImageJ software (http at rsb.info.nih.gov/ij/) in three separate explants and three measurements for each treatment respectively. Beating frequency of myocardial cells was counted three times at 7-15 days of treatment. Calculations were normalized to PBS and TB4 treated positive and negative controls. After 15 days at 37° C. in 5% CO2, explants were fixed in 4% paraformaldehyde in PBS for 10 min at room temperature. Explants were stored at 4° C. in PBS for further immunocytochemical investigations.

keratinocytes = details: within four to five hours after treatment, compared to untreated keratinocytes; cited from earlier work
pS368-Cx43 = assay: Western blot of pS368-Connexin43 in infarcted hearts; assay type: in vivo, mouse; details: ischemic border, 21 days, compared to PBS
Description: (§1) Animals and Surgical procedures. Mice: Myocardial infarctions were produced in seventy C57BL/6J male mice at 16 weeks of age (25-30 g) by ligation of the left anterior descending (LAD) coronary artery as described (Garner et al., 2003). All animal protocols were reviewed and approved by the University of Texas Southwestern Medical School Institutional Animal Care Advisory Committee and were in compliance with the rules governing animal use as published by the NIH. Mice were sedated in an isoflurane chamber (5%) for 60 seconds until self-designed coaxial mask could be safely applied. The mask supplied continuous isoflurane (2.0%) and oxygen (98.0%) under positive pressure from a Harvard small animal respirator throughout the procedures. […] Effective doses of the peptides were calculated based on optimal in vitro cell migration effect and on biodistribution calculations of full length TB4 (Mora et al., 1997). […]
Western blot. […] The protein fraction was isolated from the interphase of the Trizol purification as recommended by the manufacturer; 10 μg of the total protein was loaded and analyzed by Western blot with protein-specific primary antibodies: VEGF, p-Marcks, p-Akt, and GAPDH (1:100) (Santa Cruz), Connexin43 (1:50) (Invitrogen), N-Cadherin (1:5000) (BD Biosciences) and pS368-Connexin43 (1:1000) (Cell Signaling Technology).

[1] = system: C57BL/6J male mice after coronary ligation; assay: Myocardial infarction by LAD coronary ligation in adult mice: echocardiography, scar volume, myocyte size; assay type: in vivo, mouse
Description: Animals and Surgical procedures. Mice: Myocardial infarctions were produced in seventy C57BL/6J male mice at 16 weeks of age (25-30 g) by ligation of the left anterior descending (LAD) coronary artery as described (Garner et al., 2003). All animal protocols were reviewed and approved by the University of Texas Southwestern Medical School Institutional Animal Care Advisory Committee and were in compliance with the rules governing animal use as published by the NIH. Mice were sedated in an isoflurane chamber (5%) for 60 seconds until self-designed coaxial mask could be safely applied. The mask supplied continuous isoflurane (2.0%) and oxygen (98.0%) under positive pressure from a Harvard small animal respirator throughout the procedures. Immediately after ligation mice were injected with 200 ng of peptide in […] or […] PBS in collagen intracardially in the infarction border, and with […] PBS intraperitoneally as described (Bock-Marquette et al., 2004). Intraperitoneal injections were repeated every three days after ligation. Effective doses of the peptides were calculated based on optimal in vitro cell migration effect and on biodistribution calculations of full length TB4 (Mora et al., 1997). The inventors administered buprenorphine (0.05 mg/kg) for post-operative pain control. Hearts were removed 1, 14 and 21 days after ligation and processed for further investigations.
Analysis of cardiac function by echocardiography: Echocardiograms to assess systolic function were performed using M-mode and 2-dimensional measurements as described previously (Garner et al., 2003). The measurements represented the average of six selected cardiac cycles from at least two separate scans performed in random-blind fashion with papillary muscles used as a point of reference for consistency in level of scan. End diastole was defined as the maximal left ventricle (LV) diastolic dimension and end systole was defined as the peak of posterior wall motion. Single outliers in each group were omitted for statistical analysis. Fractional shortening (FS), a surrogate of systolic function, was calculated from LV dimensions as follows: FS=[(EDD−ESD)/EDD]×100%. Ejection fraction (EF) was calculated as follows: EF=[(edd^3−esd^3)/edd^3]×100%. EDD, end diastolic dimension; ESD, end systolic dimension.
Calculation of scar volume and myocyte size: Scar volume was calculated after Masson's trichrome staining in six sections through the heart of each mouse using Openlab 3.03 software (Improvision) similar to previously described (Bock-Marquette et al., 2004). Percent area of collagen deposition was measured on each section in blinded fashion and averaged for each mouse.

cardiomyocytes = assay: TUNEL assay on hearts after coronary ligation; assay type: in vivo, mouse; details: 24 h after ligation
Description: as §1
Immunohistochemistry. Adult mouse cardiac tissue was fixed in 4% paraformaldehyde and sections were analyzed by immunohistochemistry. […] Number of sm a-actin positive capillaries and Wt-1 positive cells were counted at the infarction border zone in high power photographs at all levels of the sections in three peptide, TB4 and PBS treated hearts respectively.

[2] = 21 days after ligation, compared to PBS
[3] = three weeks after ligation, intracardiac once plus intraperitoneal every three days

Thymosin β4 [TB4]
increase of epithelial layer restoration in the wound (full thickness wound; by day four): 42% | increase of epithelial layer restoration in the wound (full thickness wound; by day seven): 61% | wound contraction (full thickness wound; compared to untreated wounds): more than 11% | collagen deposition in the wound and angiogenesis (full thickness wound; rat, in vivo): stimulated collagen deposition | frequency of myocardial beating (myocardial cells): 100.00+/−5.03 beats/75 sec | increase of keratinocyte migration (keratinocytes): two to threefold | pS368-Cx43 (Cx43 phosphorylation) (pS368-Cx43): significantly lower; also recorded: decrease in Cx43 phosphorylation | myocyte diameter / size in the ischemic area [1, 2]: increased myocyte diameter; also recorded: significantly increase the size of surviving cardiomyocytes | scar (Masson's trichrome staining) [1, 2]: significant reduction of the scar | end systolic diameter (ESD) ([1]; after three weeks): significantly decreased | calculated ejection fraction (EF) [1, 3]: 50.9+/−3.6% | mean fractional shortening (FS) [1, 3]: 87.4+/−2.6% | TUNEL positive cardiomyocytes (myocardial cell death) (cardiomyocytes): significant decrease of myocardial cell death
